# Source: patent US20250269091A1, “UTILIZATION OF ELECTROPHORETIC DEPOSITION TO COAT MEDICAL IMPLANTS WITH THERAPEUTIC AGENTS IN A STERILE CLINICAL SETTING” (Rush University Medical Center, priority 2022, published 2025)
# How the values were obtained:
# [1] = tested on: S. aureus; settings: 4 ml of 1×10^5 CFU/ml S. aureus, 24 hours
# Experimental: A gentamicin-loaded chitosan-coated wire was placed in one tube (loaded wire, LW). 0.25 mg gentamicin was added to the second tube (antibiotic control, AC). The third tube contained bacteria only and served as growth control (GC). The tubes were incubated for 24 hours, and the absorbance of the solutions was measured with a spectrophotometer in each tube.
# [2] = Gentamicin release from titanium nanotubes, fractional volume sampling; format: physicochemical
# Experimental: FIG. 13 illustrates a line graph showing the amount of gentamicin 2300 released from a titanium surface per hour 2400 after a two-step EPD process, as described above. […] Fractional volume sampling was carried out for 3 days. FIG. 15 illustrates the gentamicin concentration in the release solution, and FIG. 16 represents the cumulative release of gentamicin. An initial burst release was observed of around 78% in the first 10 minutes, then gentamicin was released at a slower rate up to 3 days.
# [3] = tested on: S. aureus Xen36; assay: Minimal inhibitory concentration by broth dilution method; format: cell-based, Staphylococcus aureus; settings: against S. aureus Xen36, broth dilution
# Experimental: FIGS. 17-20 show tests of the titanium rod of FIG. 3 against Staphylococcus aureus by agar dilution and liquid culture methods. To determine the antimicrobial activity of the loaded wires, S. aureus (Xen36, derived from ATCC 49525) bacteria were cultured overnight at 37° C. in Luria-Bertani medium. The minimal inhibitory concentration of gentamicin was determined by the broth dilution method. In the agar diffusion test, 100 μl of 1×10^6 colony forming units/ml S. aureus solution was inoculated on agar plates and dried. […] The inhibition zones (IZ) 1708, 1710 around the components were measured following 24 hours incubation at 37° C.
# In the agar diffusion assay, an elliptical shaped IZ 1708 formed around the loaded wire 1702 (35 mm shorter and 45 mm longer axis).
substance,measurement,setting,value
gentamicin,bacterial density (absorbance) compared to growth control,[1],significantly decreased bacterial density
same,duration of slower release of gentamicin,[2]; after the initial burst,up to 3 days
same,drug concentration in release solution relative to MIC,[2]; entire period tested (3 days),stayed above the determined minimum inhibitory concentration (MIC)
same,initial burst release of gentamicin,"[2]; first 10 minutes, titanium nanotube surface after two-step EPD with gentamicin and chitosan",around 78%
same,cumulative amount of gentamicin detected,"[2]; release over 3 days, titanium nanotube surface after two-step EPD",400 to 550 µg
same,MIC,[3],3.6 µg/mL
